Results as given in US20250256005A1, “FLOWABLE PASTE WITH ELLAGIC ACID-NICKEL COMPLEX AND USES THEREOF FOR ACTIVATING COAGULATION” (Ethicon, Inc., priority 2024, published 2025).

System: citrated whole blood (intrinsic pathway of coagulation)
Assay: Whole Blood (WB) gelation test
Type: biochemical
Conditions: ellagic acid without Nickel or any other metal
Description: The aim was to assess how quickly the activators clot fresh whole blood.
These clotting time assays evaluate the ability of a material to active the intrinsic pathway to form a fibrin clot in whole blood after recalcification of citrated blood. Fresh citrated blood is used to preserve clotting factors.
WB Gelation Test: The WB gelation test uses a larger volume of blood compared to a small volume ACT tube to accommodate biomaterials, e.g., gelatins, collagen, thus allowing the WB gelation test to assess interactions between activators and biomaterials. […] To address this limitation, the WB Gelation Test was developed with a heated enclosure and larger tubes to accommodate larger volumes of blood and greater amounts of activators. Setup includes a plexiglass enclosure with a heating unit to perform the testing at 37° C. A temperature sensor in the enclosure maintained the temperature at 37° C. ±1° C. The enclosure contains an orbital rotator to gently mix the blood to with the other materials being tested while keeping it warm. The calcium saline and tube rocker are also in the enclosure. The enclosure has a front hinge to allow access from the front of the unit.
In exemplary procedures, citrated whole blood (4 ml) was added to a 15 ml conical tube with activator/biomaterial and mixed, then calcium saline solution (2 ml) was added to the tube and the timer is started. […]

In the case of `O=c1oc2c(O)c(O)cc3c(=O)oc4c(O)c(O)cc1c4c23` [Ellagic acid, ellagic acid], the “time over which no clotting was observed” value is reported as “over 1200 minutes”.
